Experiments:
Type in all cases: in vivo
[1] = system: diamondback moth (Plutella xylostella); assay: Test Method 4: sprayed cabbage seedling, second-instar larvae of diamondback moth; details: 120 h, spray 20 mL/seedling, after 5 days
Protocol: (§1) Each test compound is made to a formulation according to a similar method to that described in the Formulation Example 1, and thereto is added water containing 0.03 v/v % of Shindain (registered trademark) to prepare a diluted solution containing a prescribed concentration of the test compound.
(§2) Cabbage (Brassicae oleracea) seedling (on the developmental stage of the second to third true leaf) is planted in a container, and the diluted solutions are sprayed to the seedling at a ratio of 20 mL/seedling. Thereafter, the aerial part of the seedling is cut out and then is installed into a container in which a filter paper is placed at the bottom of the container. Five of second-instar larvae of diamondback moth (Plutella xylostella) are released into the container. After 5 days, the number of the surviving insects is counted, and the mortality of insects is calculated by the following equation.

[2] = system: diamondback moth (Plutella xylostella); assay: Test Method 10: sprayed cabbage seedling, third-instar larvae of diamondback moth (formulation per Formulation Example 5); details: 120 h, spray 20 mL/seedling, after 5 days
Protocol: (§3) Each test compound is made to a formulation according to a similar method to that described in the Formulation Example 5, and thereto is added water containing 0.03 v/v % of Shindain (registered trademark) to prepare a diluted solution containing a prescribed concentration of the test compound.
(§4) Cabbage (Brassicae oleracea) seedling (on the developmental stage of the third to fourth true leaf) is planted in a container, and the diluted solutions are sprayed to the seedling at a ratio of 20 mL/seedling. Thereafter, ten of third-instar larvae of diamondback moth (Plutella xylostella) are released. After 5 days, the number of the surviving insects is counted, and the mortality of insects is calculated by the following equation.

[3] = system: cotton aphids (Aphis gossypii); assay: Test Method 2: soil drench of cucumber seedling, cotton aphids released after 7 days; details: drench 5 mL/seedling, examined after 6 days
Protocol: Each test compound is made to a formulation according to a similar method to that described in the Formulation Example 5, and thereto is added water to prepare a diluted solution containing a prescribed concentration of the test compound. Cucumber (Cucumis sativus) seedling (on the developmental stage of the second true leaf) is planted in a container, and the diluted solutions are drenched to the bottom of the seedling at a ratio of 5 mL/seedling. After 7 days, approximately 30 cotton aphids (Aphis gossypii) (all developmental stages of life) are released onto the leaf of the seedling. After 6 days, the number of the surviving insects is examined and the controlling value is calculated by the following equation. [formula] wherein the symbols in the formula represent the following descriptions. • Cb: Number of the test insects in untreated group; • Cai: Number of the surviving insects at the time of the investigation in untreated group; • Tb: Number of the test insects in treated group; • Tai: Number of the surviving insects at the time of the investigation in treated group; Here the “untreated group” represents a group where the similar treatment procedure to that of the treated group except not using the test compound is done.

[4] = system: common cutworm (Spodoptera litura); assay: Test Method 3: sprayed cabbage seedling, second-instar larvae of common cutworm; details: 120 h, spray 20 mL/seedling, after 5 days
Protocol: as §1
as §2, with “common cutworm (Spodoptera litura)” for “diamondback moth (Plutella xylostella)”

[5] = system: common cutworm (Spodoptera litura); assay: Test Method 9: sprayed cabbage seedling, third-instar larvae of common cutworm (formulation per Formulation Example 5); details: 144 h, spray 20 mL/seedling, after 6 days
Protocol: as §3
as §4, with “common cutworm (Spodoptera litura)” for “diamondback moth (Plutella xylostella)”, “6” for “5”

[6] = system: Western corn rootworm (Diabrotica virgifera virgifera); assay: Test Method 5: corn seedling dip, second-instar larvae of Western corn rootworm; details: 120 h, corn seedling immersed 30 seconds, after 5 days
Protocol: Each 1 mg of the test compounds is dissolved in 50 μL of a mixed solution consisting of 5% of polyoxyethylene sorbitan mono-cocoate and 95% of acetone by volume ratio. Thereto is added water containing 0.03% by volume of Shindain (registered trademark) to prepare a diluted solution containing a prescribed concentration of the test compound.
A young seedling of corn (Zea mays) is immersed into the diluted solution for 30 seconds. Thereafter, two seedlings are installed in a plastic petri dish ([…]), and 10 of second-instar larvae of Western corn rootworm (Diabrotica virgifera virgifera) are released into the dish. After 5 days, the number of the dead insects is counted, and the mortality of insects is calculated by the following equation.

[7] = system: German cockroach (Blattella germanica); assay: Test Method 6: coated glass vial, German cockroach male adults; details: 40 mg/m^2 coated vial, 3 days
Protocol: An acetone solution which is adjusted to 800 ppm of each test compound is poured into a 50 mL glass vial, and the test compound is coated uniformly on inner face of the vial so as to 40 mg/m^2 of the test compound treated, and the vial is then dried.
5 German cockroach (Blattella germanica) male adults are released into the treated vial, and the vial is then covered with lid. After the prescribed time, the state of the German cockroach is examined, and the mortality is calculated by the following equation.

[8] = system: housefly (Musca domestica); assay: Test Method 8: coated glass vial, housefly female adults; details: 40 mg/m^2 coated vial, 1 day
Protocol: An acetone solution which is adjusted to 800 ppm of each test compound is poured into a 20 mL glass vial, and the test compound is coated uniformly on inner face of the vial so as to 40 mg/m^2 of the test compound treated, and the vial is then dried.
5 housefly (Musca domestica) female adults are released into the treated vial, and the vial is then covered with lid. After the prescribed time, the state of the housefly is examined, and the mortality is calculated by the following equation.

SMILES	mortality at 500 ppm [1] [%]	mortality at 200 ppm [2] [%]	controlling value ([3]; 250 ppm) [%]	controlling value ([3]; 1000 ppm) [%]	mortality at 500 ppm [4] [%]	mortality at 200 ppm [5] [%]	mortality at 50 ppm [2] [%]	mortality at 200 ppm [6] [%]	mortality [7] [%]	mortality [8] [%]
CN(C)S(=O)(=O)c1cc(Br)cnc1-n1nc2ccc(C(F)(F)F)cn2c1=O [Present compound 1]	≥ 80	≥ 80								
CN(C)S(=O)(=O)c1c(-n2nc3ccc(C(F)(F)F)cn3c2=O)nc2ccc(Br)cn12 [Present compound 2]	≥ 80	≥ 80	100	100	≥ 80	≥ 80	≥ 80			
CNS(=O)(=O)c1c(-c2nc3cc(C(F)(F)F)cnc3[nH]2)nc2ccc(C(F)(F)F)cn12 [Present compound 3]	≥ 80	≥ 80			≥ 80	≥ 80	≥ 80	100	100	100
